We go through 19 molecules from patent US20230072683A1, “PYRIDO-PYRIMIDIN DERIVATIVES AND PHARMACEUTICAL COMPOSITION, FOR USE IN PREVENTING OR TREATING PI3 KINASE RELATED DISEASES, COMPRISING SAME AS ACTIVE INGREDIENT” (BORYUNG PHARMACEUTICAL CO., LTD, priority 2019, published 2023).

Where two headings read alike, the source gives them in different places.

The term inhibition denotes the change of the read-out against control, counted positive when it falls.

Assay [1] has as its target PI3K-δ (PI3K(p1108/p857) (h)) (Homo sapiens, UniProt O00329). Put plainly: Evaluation of inhibitory activity against PI3K-δ (HTRF kinase assay). The format is biochemical. As to conditions: for inhibition at 0.01 µM: compound concentration 0.01 μM, read-out: EXP_VALUE(% Inhibition) PI3K-δ 0.01 μM; for inhibition at 0.1 µM: read-out: EXP_VALUE(% Inhibition) PI3K-δ 0.1 μM. The essentials:
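HTRF read-out (665/620 nm ratio ×10000) used Eu-labelled anti-GST, GST-tagged GRP1 PH domain and streptavidin-allophycocyanin after EDTA/PIP3 stop.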
A general note: Time-resolved FRET reads energy transfer from a long-lived donor to a nearby acceptor.

Another assay has as its target DNA-PK(h) (Homo sapiens, UniProt P78527). Nature of the assay: Evaluation of inhibitory activity against DNA-PK (HTRF kinase assay, GST-cMyc-p53 substrate). The format is biochemical. As to conditions: for inhibition at 0.01 µM: compound concentration 0.01 μM, read-out: EXP_VALUE(% Inhibition) DNA-PK(h) 0.01 μM; for inhibition at 0.1 µM: read-out: EXP_VALUE(% Inhibition) DNA-PK(h) 0.1 μM. The essentials: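 p53 Ser15 phosphorylation by human DNA-PK was measured by time-resolved FRET ratio (665/620 nm ×10000) using Eu-labelled anti-phospho-Ser15 and d2 anti-GST antibodies. Substrate GST-cMyc-p53 at 50 μM; Mg/ATP-initiated, 30 min at room temperature, EDTA stop.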

Sequence of PI3K-δ (PI3K(p1108/p857) (h)) (O00329 whole entry, the tested form may be a part): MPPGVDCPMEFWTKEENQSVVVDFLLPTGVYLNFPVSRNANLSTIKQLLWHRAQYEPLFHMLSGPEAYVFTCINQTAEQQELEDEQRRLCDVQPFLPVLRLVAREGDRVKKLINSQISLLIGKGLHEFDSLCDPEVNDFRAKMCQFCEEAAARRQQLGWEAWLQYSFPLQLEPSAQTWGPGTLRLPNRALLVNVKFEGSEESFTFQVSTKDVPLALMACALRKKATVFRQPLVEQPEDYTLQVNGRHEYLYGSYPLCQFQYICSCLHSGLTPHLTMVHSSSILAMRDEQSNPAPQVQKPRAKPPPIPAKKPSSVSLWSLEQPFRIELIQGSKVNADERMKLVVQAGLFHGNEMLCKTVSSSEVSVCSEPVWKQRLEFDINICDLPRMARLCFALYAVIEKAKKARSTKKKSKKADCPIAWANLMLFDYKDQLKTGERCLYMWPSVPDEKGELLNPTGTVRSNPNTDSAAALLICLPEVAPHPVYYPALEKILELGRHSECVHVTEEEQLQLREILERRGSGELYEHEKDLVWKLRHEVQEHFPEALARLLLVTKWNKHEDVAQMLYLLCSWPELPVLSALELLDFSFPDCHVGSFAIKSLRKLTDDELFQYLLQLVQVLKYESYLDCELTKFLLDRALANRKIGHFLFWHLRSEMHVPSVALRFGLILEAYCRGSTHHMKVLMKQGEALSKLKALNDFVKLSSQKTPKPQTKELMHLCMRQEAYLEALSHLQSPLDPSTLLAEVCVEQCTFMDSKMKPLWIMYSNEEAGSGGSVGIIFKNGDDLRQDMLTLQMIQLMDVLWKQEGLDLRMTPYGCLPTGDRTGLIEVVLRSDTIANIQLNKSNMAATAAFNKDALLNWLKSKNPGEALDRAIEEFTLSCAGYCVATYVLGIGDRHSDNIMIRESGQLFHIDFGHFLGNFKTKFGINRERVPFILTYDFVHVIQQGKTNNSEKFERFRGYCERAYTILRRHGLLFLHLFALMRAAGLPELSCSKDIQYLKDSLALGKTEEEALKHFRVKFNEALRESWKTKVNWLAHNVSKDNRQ
Sequence of PI3K-δ (PI3K(p1108/p857) (h)) (P27986 whole entry partner, the tested form may be a part): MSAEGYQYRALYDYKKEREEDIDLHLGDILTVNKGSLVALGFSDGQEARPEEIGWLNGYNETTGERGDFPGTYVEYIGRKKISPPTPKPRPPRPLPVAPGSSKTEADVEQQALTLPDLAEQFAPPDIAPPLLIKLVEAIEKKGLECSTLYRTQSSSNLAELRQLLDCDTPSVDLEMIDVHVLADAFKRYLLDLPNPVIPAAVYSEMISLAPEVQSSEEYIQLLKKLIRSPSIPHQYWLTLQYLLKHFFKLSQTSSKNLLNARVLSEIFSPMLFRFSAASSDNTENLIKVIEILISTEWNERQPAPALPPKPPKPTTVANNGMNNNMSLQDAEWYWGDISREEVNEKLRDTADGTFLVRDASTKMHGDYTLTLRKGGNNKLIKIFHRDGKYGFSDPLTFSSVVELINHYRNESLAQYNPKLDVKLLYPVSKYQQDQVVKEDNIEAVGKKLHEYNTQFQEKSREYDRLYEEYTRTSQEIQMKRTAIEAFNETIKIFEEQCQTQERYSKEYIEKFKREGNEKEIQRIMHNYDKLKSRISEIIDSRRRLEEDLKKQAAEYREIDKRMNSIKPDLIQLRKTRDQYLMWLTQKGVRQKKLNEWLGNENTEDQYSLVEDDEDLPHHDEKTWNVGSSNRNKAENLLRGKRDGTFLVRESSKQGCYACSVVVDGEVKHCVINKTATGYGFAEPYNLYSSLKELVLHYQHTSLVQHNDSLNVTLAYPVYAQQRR

As to `C[C@H](Nc1ncnc2[nH]ccc(=O)c12)c1c(Cl)c2cccc(-c3cc(F)c4c(c3)NCCO4)c2c(=O)n1-c1ccccc1` [Example 192, (S)-4-((1-(4-chloro-8-(8-fluoro-3,4-dihydro-2H-benzo[b] [1,4]oxazin-6-yl)-1-oxo-2-phenyl-1,2-dihydroisoquinolin-3-yl)ethyl)amino)pyrido[2,3-d]pyrimidin-5(8H)-one], the inhibition at 0.01 µM was 72% in assay [1] and 25% on DNA-PK(h).

In the case of `C[C@H](Nc1ncnc2[nH]ccc(=O)c12)c1c(Cl)c2ccccc2c(=O)n1-c1ccccc1` [Example 38, (S)-4-((1-(4-chloro-1-oxo-2-phenyl-1,2-dihydroisoquinolin-3-yl)ethyl)amino)pyrido[2,3-d]pyrimidin-5(8H)-one], the inhibition at 0.01 µM in assay [1] came out at 71%; at DNA-PK(h) it was 46%.

Consider `C[C@H](Nc1ncnc2[nH]ccc(=O)c12)c1c(Cl)c2cccc(-c3ccc4c(c3)ncn4C)c2c(=O)n1-c1ccccc1` [Example 114, (S)-4-((1-(4-chloro-8-(1-methyl-1H-benzo[d]imidazol-5-yl)-1-oxo-2-phenyl-1,2-dihydroisoquinolin-3-yl)ethyl)amino)pyrido[2,3-d]pyrimidin-5(8H)-one], for which the inhibition at 0.01 µM in assay [1] was 87%; on DNA-PK(h), 77%. The inhibition at 0.1 µM stood at 95% in assay [1] (compound concentration 0.1 μM) and 97% on DNA-PK(h) (compound concentration 0.1 μM).

In the case of `C[C@H](Nc1ncnc2[nH]ccc(=O)c12)c1c(Cl)c2cccc(-c3ccc4[nH]cnc4c3)c2c(=O)n1-c1ccccc1` [Example 125, (S)-4-((1-(8-(1H-benzo[d]imidazol-5-yl)-4-chloro-1-oxo-2-phenyl-1,2-dihydroisoquinolin-3-yl)ethyl)amino)pyrido[2,3-d]pyrimidin-5(8H)-one], the inhibition at 0.01 µM stood at 68% in assay [1] and 79% on DNA-PK(h). Also, the inhibition at 0.1 µM in assay [1] (compound concentration 0.1 μM) is 95%; at DNA-PK(h) (compound concentration 0.1 μM) it was 97%.

Take `C[C@H](Nc1ncnc2[nH]ccc(=O)c12)c1c(Cl)c2cccc(C(=O)NC3COC3)c2c(=O)n1-c1ccccc1` [Example 276, (S)-4-chloro-N-(oxetan-3-yl)-1-oxo-3-(1-((5-oxo-5,8-dihydropyrido[2,3-d]pyrimidin-4-yl)amino)ethyl)-2-phenyl-1,2-dihydroisoquinoline-8-carboxamide]: the inhibition at 0.01 µM in assay [1] came to 96%; on DNA-PK(h), 29%.

Take `COc1cc(-c2cccc3c(Cl)c([C@H](C)Nc4ncnc5[nH]ccc(=O)c45)n(-c4ccccc4)c(=O)c23)nc(OC)n1` [Example 49, (S)-4-((1-(4-chloro-8-(2,6-dimethoxypyrimidin-4-yl)-1-oxo-2-phenyl-1,2-dihydroisoquinolin-3-yl)ethyl)amino)pyrido[2,3-d]pyrimidin-5(8H)-one]: the inhibition at 0.01 µM in assay [1] was 23%; on DNA-PK(h), -3%.

For `C[C@H](Nc1ncnc2[nH]ccc(=O)c12)c1c(Cl)c2cccc(-c3ccc(OCC(F)(F)F)nc3)c2c(=O)n1-c1ccccc1` [Example 147, (S)-4-((1-(4-chloro-1-oxo-2-phenyl-8-(6-(2,2,2-trifluoroethoxy)pyridin-3-yl)-1,2-dihydroisoquinolin-3-yl)ethyl)amino)pyrido[2,3-d]pyrimidin-5(8H)-one], the inhibition at 0.01 µM in assay [1] came to 69%; at DNA-PK(h) it was 48%.

Turning to `C[C@H](Nc1ncnc2[nH]ccc(=O)c12)c1c(Cl)c2cccc(-c3cccc(N4CCOCC4)c3)c2c(=O)n1-c1ccccc1` [Example 173, (S)-4-((1-(4-chloro-8-(3-morpholinophenyl)-1-oxo-2-phenyl-1,2-dihydroisoquinolin-3-yl)ethyl)amino)pyrido[2,3-d]pyrimidin-5(8H)-one], the inhibition at 0.01 µM in assay [1] stood at 40%; at DNA-PK(h) it was 86%.

Regarding `C[C@H](Nc1ncnc2[nH]ccc(=O)c12)c1c(Cl)c2cccc(-c3ccc(N4CCCC4)cc3)c2c(=O)n1-c1ccccc1` [Example 87, (S)-4-((1-(4-chloro-1-oxo-2-phenyl-8-(4-(pyrrolidin-1-yl)phenyl)-1,2-dihydroisoquinolin-3-yl)ethyl)amino)pyrido[2,3-d]pyrimidin-5(8H)-one], the inhibition at 0.01 µM stood at 38% in assay [1] and 31% at DNA-PK(h). The inhibition at 0.1 µM in assay [1] (compound concentration 0.1 μM) stood at 83%; at DNA-PK(h) (compound concentration 0.1 μM), 79%.

`C[C@H](Nc1ncnc2[nH]ccc(=O)c12)c1c(Cl)c2cccc(-c3ccc(C(=O)O)cc3)c2c(=O)n1-c1ccccc1` [Example 166, (S)-4-(4-chloro-1-oxo-3-(1-((5-oxo-5,8-dihydropyrido[2,3-d]pyrimidin-4-yl)amino)ethyl)-2-phenyl-1,2-dihydroisoquinolin-8-yl)benzoic acid]: the inhibition at 0.01 µM in assay [1] stood at 59%; at DNA-PK(h), 67%.

Take `C[C@H](Nc1ncnc2[nH]ccc(=O)c12)c1c(Cl)c2cccc(N3CC4CCCC4C3)c2c(=O)n1-c1ccccc1` (stereo partly drawn) [Example 342, 4-(((1S)-1-(4-chloro-8-(hexahydrocyclopenta[c]pyrrol-2 (1H)-yl)-1-oxo-2-phenyl-1,2-dihydroisoquinolin-3-yl)ethyl)amino)pyrido[2,3-d]pyrimidin-5(8H)-one]: the inhibition at 0.01 µM in assay [1] turned out to be 15%; on DNA-PK(h), 9%. Further, the inhibition at 0.1 µM was determined as 45% in assay [1] (compound concentration 0.1 μM) and 58% at DNA-PK(h) (compound concentration 0.1 μM).

Turning to `C[C@H](Nc1ncnc2[nH]ccc(=O)c12)c1c(Cl)c2cccc(N3CCC[C@H]3C(N)=O)c2c(=O)n1-c1ccccc1` [Example 337, (S)-1-(4-chloro-1-oxo-3-((S)-1-((5-oxo-5,8-dihydropyrido[2,3-d]pyrimidin-4-yl)amino)ethyl)-2-phenyl-1,2-dihydroisoquinolin-8-yl) pyrrolidine-2-carboxamide], the inhibition at 0.01 µM was 27% in assay [1] and 13% on DNA-PK(h). The inhibition at 0.1 µM turned out to be 70% in assay [1] (compound concentration 0.1 μM) and 63% at DNA-PK(h) (compound concentration 0.1 μM).

`C[C@H](Nc1ncnc2[nH]ccc(=O)c12)c1c(Cl)c2cccc(-c3ccc(Cl)cc3)c2c(=O)n1-c1ccccc1` [Example 84, (S)-4-((1-(4-chloro-8-(4-chlorophenyl)-1-oxo-2-phenyl-1,2-dihydroisoquinolin-3-yl)ethyl)amino)pyrido[2,3-d]pyrimidin-5(8H)-one]: the figures for the inhibition at 0.01 µM (in assay [1]; on DNA-PK(h)) were 49% and 16%, respectively. The inhibition at 0.1 µM turned out to be 91% in assay [1] (compound concentration 0.1 μM) and 65% on DNA-PK(h) (compound concentration 0.1 μM).

For `C[C@H](Nc1ncnc2[nH]ccc(=O)c12)c1c(Cl)c2cccc(-c3ccc(-c4ccon4)cc3)c2c(=O)n1-c1ccccc1` [Example 33, (S)-4-((1-(4-chloro-8-(4-(isoxazol-3-yl)phenyl)-1-oxo-2-phenyl-1,2-dihydroisoquinolin-3-yl)ethyl)amino)pyrido[2,3-d]pyrimidin-5(8H)-one], the values for the inhibition at 0.01 µM (in assay [1]; on DNA-PK(h)) were 92% and 48%, respectively.

As to `CCCOC(C)(C)c1ncc(-c2cccc3c(Cl)c([C@H](C)Nc4ncnc5[nH]ccc(=O)c45)n(-c4ccccc4)c(=O)c23)cn1` [Example 406, (S)-4-((1-(4-chloro-1-oxo-2-phenyl-8-(2-(2-propoxypropan-2-yl)pyrimidin-5-yl)-1,2-dihydroisoquinolin-3-yl)ethyl)amino)pyrido[2,3-d]pyrimidin-5(8H)-one], the inhibition at 0.1 µM in assay [1] (compound at 0.1 μM) came to 72%; on DNA-PK(h) (compound at 0.1 μM), 71%.

In the case of `COc1ccc(-c2cccc3c(Cl)c([C@H](C)Nc4ncnc5[nH]ccc(=O)c45)n(-c4ccccc4)c(=O)c23)cc1` [Example 64, (S)-4-((1-(4-chloro-8-(4-methoxyphenyl)-1-oxo-2-phenyl-1,2-dihydroisoquinolin-3-yl)ethyl)amino)pyrido[2,3-d]pyrimidin-5(8H)-one], the figures for the inhibition at 0.01 µM (in assay [1]; at DNA-PK(h)) were 93% and 51%, respectively. The inhibition at 0.1 µM in assay [1] (compound concentration 0.1 μM) worked out at 101%; on DNA-PK(h) (compound concentration 0.1 μM), 86%.

As to `C[C@H](Nc1ncnc2[nH]ccc(=O)c12)c1c(Cl)c2cccc(N3CCN(c4ccccn4)CC3)c2c(=O)n1-c1ccccc1` [Example 333, (S)-4-((1-(4-chloro-1-oxo-2-phenyl-8-(4-(pyridin-2-yl)piperazin-1-yl)-1,2-dihydroisoquinolin-3-yl)ethyl)amino)pyrido[2,3-d]pyrimidin-5(8H)-one], the inhibition at 0.01 µM is 46% in assay [1] and 17% on DNA-PK(h). The inhibition at 0.1 µM in assay [1] (compound concentration 0.1 μM) was found to be 79%; on DNA-PK(h) (compound concentration 0.1 μM), 62%.

In the case of `CC(O)c1ccc(-c2cccc3c(Cl)c([C@H](C)Nc4ncnc5[nH]ccc(=O)c45)n(-c4ccccc4)c(=O)c23)cc1` (stereo partly drawn) [Example 57, 4-(((1S)-1-(4-chloro-8-(4-(1-hydroxyethyl)phenyl)-1-oxo-2-phenyl-1,2-dihydroisoquinolin-3-yl)ethyl)amino)pyrido[2,3-d]pyrimidin-5(8H)-one], the inhibition at 0.01 µM in assay [1] was 97%; on DNA-PK(h), 80%.

With `C=Cc1cccc2c(Cl)c([C@H](C)Nc3ncnc4[nH]ccc(=O)c34)n(-c3ccccc3)c(=O)c12` [Example 142, (S)-4-((1-(4-chloro-1-oxo-2-phenyl-8-vinyl-1,2-dihydroisoquinolin-3-yl)ethyl)amino)pyrido[2,3-d]pyrimidin-5(8H)-one], the values for the inhibition at 0.01 µM (in assay [1]; on DNA-PK(h)) were 67% and 50%, respectively. The results for the inhibition at 0.1 µM (in assay [1] (compound concentration 0.1 μM); on DNA-PK(h) (compound concentration 0.1 μM)) were 97% and 87%, respectively.
